Data: patent US9533985B2, “Sulfonamide derivative and medicinal use thereof” (EA Pharma Co., Ltd., priority 2012, dated 2017)
pIC50: −log10 of the molar value.

Biological target: α4β7 integrin (Homo sapiens (Human), UniProt P13612+P26010)
Assay: MAdCAM-1/α4β7 integrin binding inhibitory activity evaluation test in the presence of serum (2)
Assay type: cell-based
Settings: RPMI-8866 cells binding to mouse MAdCAM-1/Fc, same manner as Test (3), read-out: α4β7 Rank of activity with serum added
In short: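 Adhesion of human RPMI-8866 B cells (α4β7-expressing) to plate-bound recombinant mouse MAdCAM-1/Fc in DMEM binding buffer with 4 mM MnCl2 and 50% final human serum, 15–60 min at 30 °C. Bound cells quantified by LDH activity (A490) after lysis; IC50 relative to no-compound binding, duplicate.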

Sequence of α4β7 integrin (P13612 34-1032): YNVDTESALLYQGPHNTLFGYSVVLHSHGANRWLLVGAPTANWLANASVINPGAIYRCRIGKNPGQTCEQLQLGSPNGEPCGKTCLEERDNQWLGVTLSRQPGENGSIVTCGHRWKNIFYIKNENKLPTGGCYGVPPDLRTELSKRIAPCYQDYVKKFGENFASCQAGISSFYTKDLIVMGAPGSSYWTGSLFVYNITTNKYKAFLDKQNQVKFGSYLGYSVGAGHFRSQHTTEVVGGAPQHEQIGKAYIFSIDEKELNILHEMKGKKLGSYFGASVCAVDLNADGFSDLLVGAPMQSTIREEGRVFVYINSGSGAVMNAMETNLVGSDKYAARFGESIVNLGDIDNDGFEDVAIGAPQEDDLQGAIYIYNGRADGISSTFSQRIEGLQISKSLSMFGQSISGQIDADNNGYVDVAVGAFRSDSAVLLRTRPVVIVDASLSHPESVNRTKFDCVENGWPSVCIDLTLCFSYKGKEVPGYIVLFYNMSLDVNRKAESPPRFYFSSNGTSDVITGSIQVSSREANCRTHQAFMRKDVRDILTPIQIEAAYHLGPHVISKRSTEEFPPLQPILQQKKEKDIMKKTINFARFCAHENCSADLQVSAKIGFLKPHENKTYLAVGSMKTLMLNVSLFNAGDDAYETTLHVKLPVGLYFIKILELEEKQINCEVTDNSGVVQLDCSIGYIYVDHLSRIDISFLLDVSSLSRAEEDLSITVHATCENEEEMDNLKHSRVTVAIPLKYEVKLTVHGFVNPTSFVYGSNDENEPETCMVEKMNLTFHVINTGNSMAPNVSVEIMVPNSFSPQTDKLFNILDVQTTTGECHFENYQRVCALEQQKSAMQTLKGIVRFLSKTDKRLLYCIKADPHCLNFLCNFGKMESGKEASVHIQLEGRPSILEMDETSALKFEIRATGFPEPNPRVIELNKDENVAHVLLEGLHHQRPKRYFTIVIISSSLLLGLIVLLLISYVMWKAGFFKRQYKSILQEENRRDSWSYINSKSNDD
Sequence of α4β7 integrin (P26010 20-798): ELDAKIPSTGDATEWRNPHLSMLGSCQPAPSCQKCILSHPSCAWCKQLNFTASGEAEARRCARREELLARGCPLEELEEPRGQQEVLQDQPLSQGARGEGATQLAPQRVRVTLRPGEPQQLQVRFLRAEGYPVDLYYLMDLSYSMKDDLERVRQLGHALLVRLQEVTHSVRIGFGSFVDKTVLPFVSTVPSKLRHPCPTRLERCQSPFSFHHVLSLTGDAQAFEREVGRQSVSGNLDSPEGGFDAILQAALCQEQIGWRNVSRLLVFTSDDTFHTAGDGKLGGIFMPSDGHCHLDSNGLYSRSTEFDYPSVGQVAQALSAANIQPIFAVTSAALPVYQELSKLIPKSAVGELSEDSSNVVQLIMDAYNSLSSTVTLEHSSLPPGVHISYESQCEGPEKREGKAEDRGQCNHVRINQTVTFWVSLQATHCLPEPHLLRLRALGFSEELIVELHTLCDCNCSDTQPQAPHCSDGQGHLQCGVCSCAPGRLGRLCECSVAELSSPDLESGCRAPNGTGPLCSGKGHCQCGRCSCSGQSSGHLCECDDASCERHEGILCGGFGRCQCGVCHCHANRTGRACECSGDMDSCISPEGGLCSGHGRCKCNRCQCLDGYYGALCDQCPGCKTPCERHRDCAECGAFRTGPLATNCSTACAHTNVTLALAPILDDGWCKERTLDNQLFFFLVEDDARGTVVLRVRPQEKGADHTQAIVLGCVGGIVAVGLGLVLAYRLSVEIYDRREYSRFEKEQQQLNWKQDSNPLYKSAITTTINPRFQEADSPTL

Compound | pIC50
Cn1c(=O)n(-c2ccc(C[C@H](NC(=O)c3cc(F)c(NS(=O)(=O)c4ccc(C(=O)C5CC5)cc4)cc3F)C(=O)O)nc2)c(=O)c2ccncc21 [Example 223, N-[4-({[4-(Cyclopropylcarbonyl)phenyl]sulfonyl}amino)-2,5-difluorobenzoyl]-3-[5-(1-methyl-2,4-dioxo-1,4-dihydropyrido[3,4-d]pyrimidin-3(2H)-yl)pyridin-2-yl]-L-alanine] | 6.70 to 7.30
Cn1c(=O)n(-c2ccc(C[C@H](NC(=O)c3cc(F)c(NS(=O)(=O)c4ccc(-n5cncn5)cc4)cc3F)C(=O)O)nc2)c(=O)c2ccncc21 [Example 224, N-[2,5-Difluoro-4-({[4-(1H-1,2,4-triazol-1-yl)phenyl]sulfonyl}amino)benzoyl]-3-[5-(1-methyl-2,4-dioxo-1,4-dihydropyrido[3,4-d]pyrimidin-3(2H)-yl)pyridin-2-yl]-L-alanine] | 7.30 to 8.00
Cn1c(=O)n(-c2ccc(C[C@H](NC(=O)c3cc(F)c(NS(=O)(=O)c4ccc(-n5cncn5)cc4)cc3F)C(=O)O)cc2)c(=O)c2ccncc21 [Example 225, N-[2,5-Difluoro-4-({[4-(1H-1,2,4-triazol-1-yl)phenyl]sulfonyl}amino)benzoyl]-4-(1-methyl-2,4-dioxo-1,4-dihydropyrido[3,4-d]pyrimidin-3(2H)-yl)-L-phenylalanine] | 7.30 to 8.00
Cn1c(=O)n(-c2ccc(C[C@H](NC(=O)c3cc(F)c(NS(=O)(=O)c4ccc(-n5ccnn5)cc4)cc3F)C(=O)O)nc2)c(=O)c2ccncc21 [Example 226, N-[2,5-Difluoro-4-({[4-(1H-1,2,3-triazol-1-yl)phenyl]sulfonyl}amino)benzoyl]-3-[5-(1-methyl-2,4-dioxo-1,4-dihydropyrido[3,4-d]pyrimidin-3(2H)-yl)pyridin-2-yl]-L-alanine] | 7.30 to 8.00
Cc1cc(-c2ccc(S(=O)(=O)Nc3cc(F)c(C(=O)N[C@@H](Cc4ccc(-n5c(=O)c6ccncc6n(C)c5=O)cn4)C(=O)O)cc3F)nc2)cc(C)n1 [Example 227, N-(4-{[(2′,6′-Dimethyl-3,4′-bipyridin-6-yl)sulfonyl]amino}-2,5-difluorobenzoyl)-3-[5-(1-methyl-2,4-dioxo-1,4-dihydropyrido[3,4-d]pyrimidin-3(2H)-yl)pyridin-2-yl]-L-alanine] | 6.70 to 7.30
COc1ncc(-c2ccc(S(=O)(=O)Nc3cc(F)c(C(=O)N[C@@H](Cc4ccc(-n5c(=O)c6ccncc6n(C)c5=O)cn4)C(=O)O)cc3F)cc2)cn1 [Example 228, N-[2,5-Difluoro-4-({[4-(2-methoxypyrimidin-5-yl)phenyl]sulfonyl}amino)benzoyl]-3-[5-(1-methyl-2,4-dioxo-1,4-dihydropyrido[3,4-d]pyrimidin-3(2H)-yl)pyridin-2-yl]-L-alanine] | 6.70 to 7.30
CCc1ncc(-c2ccc(S(=O)(=O)Nc3cc(F)c(C(=O)N[C@@H](Cc4ccc(-n5c(=O)c6ccncc6n(C)c5=O)cn4)C(=O)O)cc3F)cc2)cn1 [Example 229, N-[4-({[4-(2-Ethylpyrimidin-5-yl)phenyl]sulfonyl}amino)-2,5-difluorobenzoyl]-3-[5-(1-methyl-2,4-dioxo-1,4-dihydropyrido[3,4-d]pyrimidin-3(2H)-yl)pyridin-2-yl]-L-alanine] | 6.70 to 7.30
Cn1c(=O)n(-c2ccc(C[C@H](NC(=O)c3cc(F)c(NS(=O)(=O)c4ccc(-c5ncccn5)cn4)cc3F)C(=O)O)nc2)c(=O)c2ncccc21 [Example 230, N-(2,5-Difluoro-4-{[(5-pyrimidin-2-ylpyridin-2-yl)sulfonyl]amino}benzoyl)-3-[5-(1-methyl-2,4-dioxo-1,4-dihydropyrido[3,2-d]pyrimidin-3(2H)-yl)pyridin-2-yl]-L-alanine] | 6.70 to 7.30
CCOc1cc(-c2ncccn2)ccc1S(=O)(=O)Nc1cc(F)c(C(=O)N[C@@H](Cc2ccc(-n3c(=O)c4ccncc4n(C)c3=O)cn2)C(=O)O)c(F)c1 [Example 231, N-(4-{[(2-Ethoxy-4-pyrimidin-2-ylphenyl)sulfonyl]amino}-2,6-difluorobenzoyl)-3-[5-(1-methyl-2,4-dioxo-1,4-dihydropyrido[3,4-d]pyrimidin-3(2H)-yl)pyridin-2-yl]-L-alanine] | ≥ 8.00
Cn1c(=O)n(-c2ccc(C[C@H](NC(=O)c3cc(F)c(NS(=O)(=O)c4ccc(-c5cnc(N6CCC6)nc5)cc4)cc3F)C(=O)O)nc2)c(=O)c2ccncc21 [Example 232, N-[4-({[4-(2-Azetidin-1-ylpyrimidin-5-yl)phenyl]sulfonyl}amino)-2,5-difluorobenzoyl]-3-[5-(1-methyl-2,4-dioxo-1,4-dihydropyrido[3,4-d]pyrimidin-3(2H)-yl)pyridin-2-yl]-L-alanine] | 6.70 to 7.30
Cn1c(=O)n(-c2ccc(C[C@H](NC(=O)c3cc(F)c(NS(=O)(=O)c4ccc5c(c4)C(=O)OC5)cc3F)C(=O)O)nc2)c(=O)c2ccncc21 [Example 233, N-(2,5-Difluoro-4-{[(3-oxo-1,3-dihydro-2-benzofuran-5-yl)sulfonyl]amino}benzoyl)-3-[5-(1-methyl-2,4-dioxo-1,4-dihydropyrido[3,4-d]pyrimidin-3(2H)-yl)pyridin-2-yl]-L-alanine] | 6.70 to 7.30

Results, then the compound that gave them:

pIC50 | Compound
7.30 to 8.00 | Cc1cn(-c2ccc(S(=O)(=O)Nc3cc(F)c(C(=O)N[C@@H](Cc4ccc(-n5c(=O)c6ccncc6n(C)c5=O)cn4)C(=O)O)cc3F)cc2)nn1 [Example 234, N-[2,5-Difluoro-4-({[4-(4-methyl-1H-1,2,3-triazol-1-yl)phenyl]sulfonyl}amino)benzoyl]-3-[5-(1-methyl-2,4-dioxo-1,4-dihydropyrido[3,4-d]pyrimidin-3(2H)-yl)pyridin-2-yl]-L-alanine]
< 6.70 | Cn1c(=O)n(-c2ccc(C[C@H](NC(=O)c3cc(F)c(NS(=O)(=O)c4ccc(-c5cc(F)cc(F)c5)cc4)cc3F)C(=O)O)nc2)c(=O)c2ccncc21 [Example 235, N-(4-{[(3′,5′-Difluorobiphenyl-4-yl)sulfonyl]amino}-2,5-difluorobenzoyl)-3-[5-(1-methyl-2,4-dioxo-1,4-dihydropyrido[3,4-d]pyrimidin-3(2H)-yl)pyridin-2-yl]-L-alanine]
7.30 to 8.00 | CCc1ncc(-c2ccc(S(=O)(=O)Nc3cc(F)c(C(=O)N[C@@H](Cc4ccc(-n5c(=O)c6ccncc6n(C)c5=O)cn4)C(=O)O)cc3F)nc2)cn1 [Example 236, N-[4-({[5-(2-Ethylpyrimidin-5-yl)pyridin-2-yl]sulfonyl}amino)-2,5-difluorobenzoyl]-3-[5-(1-methyl-2,4-dioxo-1,4-dihydropyrido[3,4-d]pyrimidin-3(2H)-yl)pyridin-2-yl]-L-alanine]
7.30 to 8.00 | CCc1ncc(-c2ccc(S(=O)(=O)Nc3cc(F)c(C(=O)N[C@@H](Cc4ccc(-n5c(=O)c6ccncc6n(C)c5=O)cc4)C(=O)O)cc3F)cc2)cn1 [Example 237, N-[4-({[4-(2-Ethylpyrimidin-5-yl)phenyl]sulfonyl}amino)-2,5-difluorobenzoyl]-4-(1-methyl-2,4-dioxo-1,4-dihydropyrido[3,4-d]pyrimidin-3(2H)-yl)-L-phenylalanine]
≥ 8.00 | CCc1ncc(-c2ccc(S(=O)(=O)Nc3cc(F)c(C(=O)N[C@@H](Cc4ccc(-n5c(=O)c6ccncc6n(C)c5=O)nc4)C(=O)O)cc3F)cc2)cn1 [Example 238, N-[4-({[4-(2-Ethylpyrimidin-5-yl)phenyl]sulfonyl}amino)-2,5-difluorobenzoyl]-3-[6-(1-methyl-2,4-dioxo-1,4-dihydropyrido[3,4-d]pyrimidin-3(2H)-yl)pyridin-3-yl]-L-alanine]
